Laboratory results from ChEMBL document CHEMBL1131387, “Dimers of 5HT1 ligands preferentially bind to 5HT1B/1D receptor subtypes” (Bioorg Med Chem Lett, 1998).

Columns and labels:
[1] = biological target: T1, 5-hydroxytryptamine receptor 1B (Homo sapiens, UniProt P28222); experiment: The intrinsic activity was evaluated for its ability to inhibit forskolin-stimulated c-AMP formation mediated by cloned 5-hydroxytryptamine 1B receptor in CHO cell line; Antagonist; type: functional, cell-based
[2] = biological target: T1, 5-hydroxytryptamine receptor 1B; experiment: Binding affinity was evaluated at human recombinant 5-hydroxytryptamine 1B receptor using [3H]5-CT as radioligand
[3] = biological target: 5-hydroxytryptamine receptor 1D (Homo sapiens, UniProt P28221); experiment: Binding affinity was evaluated at human recombinant 5-hydroxytryptamine 1D receptor using [3H]-5-CT as radioligand
[4] = biological target: T1, 5-hydroxytryptamine receptor 1B; experiment: The intrinsic activity was evaluated for its ability to inhibit forskolin-stimulated c-AMP formation mediated by cloned 5-hydroxytryptamine 1B receptor in CHO cell line; Partial Agonist; type: functional, cell-based
[5] = biological target: T2, 5-hydroxytryptamine receptor 1A (Homo sapiens, UniProt P08908); experiment: Binding affinity was evaluated at human recombinant 5-hydroxytryptamine 1A receptor using [3H]8-OH-DPAT as radioligand
T2 sequence (P08908 whole entry): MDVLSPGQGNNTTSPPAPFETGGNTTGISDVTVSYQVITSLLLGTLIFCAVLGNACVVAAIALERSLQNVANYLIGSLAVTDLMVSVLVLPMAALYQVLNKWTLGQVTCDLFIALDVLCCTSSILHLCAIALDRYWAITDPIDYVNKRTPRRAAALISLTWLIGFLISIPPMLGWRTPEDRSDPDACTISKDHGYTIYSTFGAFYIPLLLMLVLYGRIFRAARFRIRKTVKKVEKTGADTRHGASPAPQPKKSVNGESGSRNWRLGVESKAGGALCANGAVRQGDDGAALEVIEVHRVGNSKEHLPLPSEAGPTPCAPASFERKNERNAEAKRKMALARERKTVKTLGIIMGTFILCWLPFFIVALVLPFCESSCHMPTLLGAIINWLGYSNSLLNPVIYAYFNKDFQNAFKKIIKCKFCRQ

[6] = biological target: T1, 5-hydroxytryptamine receptor 1B; experiment: The intrinsic activity was evaluated for its ability to inhibit forskolin-stimulated c-AMP formation mediated by cloned 5-hydroxytryptamine 1B receptor in CHO cell line; type: functional, cell-based

Chain of 5-hydroxytryptamine receptor 1D (P28221 whole entry): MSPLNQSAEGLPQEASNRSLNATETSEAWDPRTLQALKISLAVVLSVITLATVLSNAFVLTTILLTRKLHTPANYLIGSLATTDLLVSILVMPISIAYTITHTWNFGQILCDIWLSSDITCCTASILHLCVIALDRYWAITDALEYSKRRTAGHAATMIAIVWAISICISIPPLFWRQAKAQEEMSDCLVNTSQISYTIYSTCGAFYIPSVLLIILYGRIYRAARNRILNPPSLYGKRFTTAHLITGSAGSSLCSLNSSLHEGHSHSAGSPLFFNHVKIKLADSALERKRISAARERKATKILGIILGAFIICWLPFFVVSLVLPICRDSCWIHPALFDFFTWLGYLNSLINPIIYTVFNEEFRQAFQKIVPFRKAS
T1 sequence (P28222 whole entry): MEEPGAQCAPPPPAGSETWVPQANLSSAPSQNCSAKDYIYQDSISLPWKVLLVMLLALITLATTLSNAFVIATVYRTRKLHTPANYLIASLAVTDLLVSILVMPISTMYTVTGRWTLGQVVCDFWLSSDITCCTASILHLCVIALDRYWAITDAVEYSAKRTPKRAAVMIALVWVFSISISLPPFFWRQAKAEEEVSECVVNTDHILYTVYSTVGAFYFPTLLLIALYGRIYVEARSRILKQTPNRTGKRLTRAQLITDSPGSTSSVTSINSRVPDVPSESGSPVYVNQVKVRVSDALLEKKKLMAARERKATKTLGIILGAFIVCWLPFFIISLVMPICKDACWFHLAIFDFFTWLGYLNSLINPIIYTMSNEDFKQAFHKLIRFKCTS

| Structure (SMILES) | EC50 [1] | Ki [2] | Ki [3] | EC50 [4] | Ki [5] | EC50 [6] |
| --- | --- | --- | --- | --- | --- | --- |
| c1ccc2c(N3CCNCC3)cccc2c1 | > 10 µM | 10.6 nM |  |  |  |  |
| CN1CCN(c2cccc3ccc(OCC(=O)Nc4ccc(NC(=O)COc5ccc6[nH]cc(CCN)c6c5)cc4)cc23)CC1 |  | 0.7 nM | 0.5 nM | Partial agonist | 5.8 nM |  |
| CN1CCN(c2cccc3ccc(OCC(=O)N4CCN(C(=O)COc5ccc6cccc(N7CCN(C)CC7)c6c5)CC4)cc23)CC1 |  | 2.56 nM | 1.24 nM | Partial agonist | 4 nM |  |
| CCCN(CCC)C1CCc2cccc(OCCCCCCOc3cccc4c3CC(N(CCC)CCC)CC4)c2C1 (configuration not stated) |  | 6.4 nM | 3.9 nM |  | 6.8 nM | 50 nM |
| CN1CCN(c2cccc3ccc(OCCOc4ccc5cccc(N6CCN(C)CC6)c5c4)cc23)CC1 | > 1 µM | 2.1 nM | 1.71 nM |  | 14 nM |  |
| CN1CCN(c2cccc3ccc(OCCOc4ccc5[nH]cc(CCN)c5c4)cc23)CC1 |  | 0.76 nM | 0.4 nM | Partial agonist | 0.96 nM |  |
